The source made the active and inactive calls. No cut-off for these calls is given here.
Legend:
[1] = Volume of distribution at steady state in Beagle dog at 1 mg/kg, iv measured upto 24 hrs by LC-MS/MS analysis; assay type: ADME, organism-based, Canis lupus familiaris; conditions: in vivo, read-out: Vdss
[2] = Volume of distribution at steady state in Sprague-Dawley rat at 1 mg/kg, iv measured upto 24 hrs by LC-MS/MS analysis; assay type: ADME, organism-based; conditions: in vivo, read-out: Vdss
[3] = Cmax in Beagle dog at 1 mg/kg, iv measured upto 24 hrs by LC-MS/MS analysis; assay type: ADME, organism-based, Canis lupus familiaris; set-up: dose 1 mg/kg, time < 24 hrs, route iv; conditions: in vivo
[4] = Cmax in Sprague-Dawley rat at 2.5 mg/kg, po measured upto 24 hrs by LC-MS/MS analysis; assay type: ADME, organism-based; set-up: dose 2.5 mg/kg, time < 24 hrs, route po; conditions: in vivo
[5] = Cmax in Beagle dog at 5 mg/kg, po measured upto 24 hrs by LC-MS/MS analysis; assay type: ADME, organism-based, Canis lupus familiaris; set-up: time < 24 hrs, dose 5 mg/kg, route po; conditions: in vivo
[6] = AUC (0 to t) in Sprague-Dawley rat at 1 mg/kg, iv measured upto 24 hrs by LC-MS/MS analysis; assay type: ADME, organism-based; set-up: time < 24 hrs, dose 1 mg/kg, route iv; conditions: in vivo; for AUCt: 24 h
[7] = AUC (0 to t) in Beagle dog at 1 mg/kg, iv measured upto 24 hrs by LC-MS/MS analysis; assay type: ADME, organism-based, Canis lupus familiaris; set-up: dose 1 mg/kg, time < 24 hrs, route iv; conditions: in vivo
[8] = AUC (0 to t) in Sprague-Dawley rat at 2.5 mg/kg, po measured upto 24 hrs by LC-MS/MS analysis; assay type: ADME, organism-based; set-up: dose 2.5 mg/kg, time < 24 hrs, route po; conditions: in vivo
[9] = AUC (0 to t) in Beagle dog at 5 mg/kg, po measured upto 24 hrs by LC-MS/MS analysis; assay type: ADME, organism-based, Canis lupus familiaris; set-up: dose 5 mg/kg, time < 24 hrs, route po; conditions: in vivo
[10] = Half life in Sprague-Dawley rat at 1 mg/kg, iv measured upto 24 hrs by LC-MS/MS analysis; assay type: ADME, organism-based; conditions: in vivo
[11] = Half life in Beagle dog at 1 mg/kg, iv measured upto 24 hrs by LC-MS/MS analysis; assay type: ADME, organism-based, Canis lupus familiaris; conditions: in vivo
[12] = Half life in Sprague-Dawley rat at 2.5 mg/kg, po measured upto 24 hrs by LC-MS/MS analysis; assay type: ADME, organism-based; conditions: in vivo
[13] = Half life in Beagle dog at 5 mg/kg, po measured upto 24 hrs by LC-MS/MS analysis; assay type: ADME, organism-based, Canis lupus familiaris; conditions: in vivo
[14] = Clearance in Sprague-Dawley rat at 1 mg/kg, iv measured upto 24 hrs by LC-MS/MS analysis; assay type: ADME, organism-based; conditions: in vivo; for CL: iv, 1 mg/kg, 24 h
[15] = Oral bioavailability in Sprague-Dawley rat at 2.5 mg/kg measured upto 24 hrs by LC-MS/MS analysis; assay type: ADME, organism-based; conditions: in vivo
[16] = Oral bioavailability in Sprague-Dawley rat at 5 mg/kg measured upto 24 hrs by LC-MS/MS analysis; assay type: ADME, organism-based; conditions: in vivo
[17] = Drug concentration in Sprague-Dawley rat plasma at 10 mg/kg, ip measured at 15 min by LC/MS-MS analysis; assay type: ADME, organism-based
[18] = Drug concentration in Sprague-Dawley rat plasma at 10 mg/kg, ip measured at 60 min by LC/MS-MS analysis; assay type: ADME, organism-based
[19] = Drug concentration in Sprague-Dawley rat plasma at 10 mg/kg, ip measured at 120 min by LC/MS-MS analysis; assay type: ADME, organism-based
[20] = Drug concentration in Sprague-Dawley rat brain at 10 mg/kg, ip measured at 15 min by LC/MS-MS analysis; assay type: ADME, organism-based; conditions: read-out: Ct
[21] = Drug concentration in Sprague-Dawley rat brain at 10 mg/kg, ip measured at 60 min by LC/MS-MS analysis; assay type: ADME, organism-based; conditions: read-out: Ct
[22] = Drug concentration in Sprague-Dawley rat brain at 10 mg/kg, ip measured at 120 min by LC/MS-MS analysis; assay type: ADME, organism-based; conditions: read-out: Ct
[23] = Ratio of drug concentration in brain to plasma in Sprague-Dawley rat at 10 mg/kg, ip measured at 15 min by LC-MS/MS analysis; assay type: ADME, organism-based; conditions: read-out: BPR
[24] = Ratio of drug concentration in brain to plasma in Sprague-Dawley rat at 10 mg/kg, ip measured at 60 min by LC-MS/MS analysis; assay type: ADME, organism-based; conditions: read-out: BPR
[25] = Ratio of drug concentration in brain to plasma in Sprague-Dawley rat at 10 mg/kg, ip measured at 120 min by LC-MS/MS analysis; assay type: ADME, organism-based; conditions: read-out: BPR
Hypothalamus [26] = assay: Inhibition of PCA-induced serotonin depletion in Sprague-Dawley rat hypothalamus assessed as recovery of 5-HT concentration at 10 mg/kg, ip by HPLC analysis (Rvb= 200 ng/g); assay type: functional
Hypothalamus [27] = assay: Inhibition of PCA-induced serotonin depletion in Sprague-Dawley rat hypothalamus assessed as recovery of 5-HT concentration at 3 mg/kg, ip by HPLC analysis; assay type: functional, organism-based
Rattus norvegicus [28] = assay: Antidepressant activity in Sprague-Dawley rat assessed as reduction in immobility time at 3 mg/kg ip measured after 15 mins by forced swim test; assay type: functional; conditions: 0.25 h
[29] = target: Sodium-dependent serotonin transporter (Homo sapiens, UniProt P31645); assay: Inhibition of SERT receptor (unknown origin)
[30] = Cmax in Sprague-Dawley rat at 1 mg/kg, iv measured upto 24 hrs by LC-MS/MS analysis; assay type: ADME, organism-based; set-up: time < 24 hrs, dose 1 mg/kg, route iv; conditions: in vivo
[31] = Clearance in Beagle dog at 1 mg/kg, iv measured upto 24 hrs by LC-MS/MS analysis; assay type: ADME, organism-based, Canis lupus familiaris; conditions: in vivo
Hypothalamus [32] = assay: Inhibition of PCA-induced serotonin depletion in Sprague-Dawley rat hypothalamus assessed as recovery of 5-HT concentration at 1 mg/kg, ip by HPLC analysis; assay type: functional, organism-based
Rattus norvegicus [33] = assay: Antidepressant activity in ip dosed Sprague-Dawley rat assessed as reduction in immobility time measured after 15 mins by forced swim test; assay type: functional, organism-based; conditions: dose 3-10 mg/kg
Rattus norvegicus [34] = assay: Antidepressant activity in Sprague-Dawley rat assessed as reduction in immobility time at 10 mg/kg ip measured after 15 mins by forced swim test; assay type: functional; conditions: 0.25 h
[35] = Oral bioavailability in human at 2.5 to […]; assay type: ADME, organism-based; conditions: in vivo, dose lower 2.5 mg/kg

Sodium-dependent serotonin transporter, sequence (P31645 whole entry): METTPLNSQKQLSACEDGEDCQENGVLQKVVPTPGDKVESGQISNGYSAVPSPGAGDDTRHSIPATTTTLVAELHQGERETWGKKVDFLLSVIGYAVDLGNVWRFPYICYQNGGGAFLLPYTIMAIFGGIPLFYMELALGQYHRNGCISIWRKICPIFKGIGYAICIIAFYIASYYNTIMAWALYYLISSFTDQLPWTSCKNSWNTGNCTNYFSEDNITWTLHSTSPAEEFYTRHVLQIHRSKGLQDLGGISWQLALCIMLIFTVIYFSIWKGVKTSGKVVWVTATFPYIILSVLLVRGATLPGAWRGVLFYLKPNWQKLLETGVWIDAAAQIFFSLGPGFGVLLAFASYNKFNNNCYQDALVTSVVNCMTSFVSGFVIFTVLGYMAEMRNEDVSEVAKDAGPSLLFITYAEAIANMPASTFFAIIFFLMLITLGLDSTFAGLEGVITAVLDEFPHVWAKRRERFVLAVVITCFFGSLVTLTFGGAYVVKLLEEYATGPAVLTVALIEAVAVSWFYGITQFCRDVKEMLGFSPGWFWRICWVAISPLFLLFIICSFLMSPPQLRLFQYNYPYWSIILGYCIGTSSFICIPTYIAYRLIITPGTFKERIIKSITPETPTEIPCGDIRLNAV

Vd [1] [L/kg]	Vd [2] [L/kg]	Cmax [3] [ng/mL]	Cmax [4] [ng/mL]	Cmax [5] [ng/mL]	AUCt [7] [ng·h/mL]	AUC(0-t) at 24 h [8] [ng·h/mL]	AUC(0-t) at 24 h [9] [ng·h/mL]	half-life [10] [h]	half-life [11] [h]	half-life [12] [h]	half-life [13] [h]	bioavailability [15] [%]	bioavailability [16] [%]	IC50 [29] [nM]	Cmax [30] [ng/mL]	AUCt [6] [ng·h/mL]	CL [14] [mL/min/kg]	CL [31] [mL/min/kg]	Compound	also measured
–	–	–	–	–	–	–	–	–	–	–	–	–	–	< 2	–	–	–	–	COc1cc(F)ccc1-c1cnc(N2CCN(CCCCc3c[nH]c4ccc(C#N)cc34)CC2)nc1	–
–	–	–	–	–	–	–	–	–	–	–	–	–	–	< 2	–	–	–	–	N#Cc1ccc2[nH]cc(CCCCN3CCN(c4ncc(-c5ccc(F)cc5)cn4)CC3)c2c1	–
–	–	–	–	–	–	–	–	–	–	–	–	–	–	< 2	–	–	–	–	COc1ccccc1-c1cnc(N2CCN(CCCCc3c[nH]c4ccc(C#N)cc34)CC2)nc1	–
–	–	–	–	–	–	–	–	–	–	–	–	–	–	< 2	–	–	–	–	N#Cc1ccc2[nH]cc(CCCCN3CCN(c4ncc(-c5ccc(C(N)=O)cc5)cn4)CC3)c2c1	–

The remaining lines, values behind:

Compound	Vd [1] [L/kg]	Vd [2] [L/kg]	Cmax [3] [ng/mL]	Cmax [4] [ng/mL]	Cmax [5] [ng/mL]	AUCt [7] [ng·h/mL]	AUC(0-t) at 24 h [8] [ng·h/mL]	AUC(0-t) at 24 h [9] [ng·h/mL]	half-life [10] [h]	half-life [11] [h]	half-life [12] [h]	half-life [13] [h]	bioavailability [15] [%]	bioavailability [16] [%]	IC50 [29] [nM]	Cmax [30] [ng/mL]	AUCt [6] [ng·h/mL]	CL [14] [mL/min/kg]	CL [31] [mL/min/kg]	also measured
N#Cc1ccc2[nH]cc(CCCCN3CCN(c4ccc5oc(C(N)=O)cc5c4)CC3)c2c1 [VILAZODONE]	2.14	3.74	488	173	454	791	443	2020	1.45	1.32	2.9	2.15	47.5	52.5	–	–	–	–	–	AUC(0-t) at 24 h ([6]; Sprague-Dawley): 409 ng·h/mL; clearance ([14]; Sprague-Dawley): 40.2 mL/min/kg; concentration at 0.25 h [17]: 1330 ng/mL; concentration at 1 h [18]: 1330 ng/mL; concentration at 2 h [19]: 861 ng/mL; concentration at 0.25 h [20]: 190 ng/g; concentration at 1 h [21]: 606 ng/g; concentration at 2 h [22]: 457 ng/g; Kp at 0.25 h [23]: 0.56; Kp at 1 h [24]: 0.46; Kp at 2 h [25]: 0.53; Activity (Hypothalamus [26]): 400 ng/g; Activity (Hypothalamus [27]): Active; Time (Rattus norvegicus [28]): 100 s
N#Cc1ccc2[nH]cc(CCCCN3CCN(c4ncc(-c5cccc(C(N)=O)c5)cn4)CC3)c2c1	2.13	2.33	1100	241	662	2330	706	4310	1.59	4.68	1.95	4.46	39.2	37.2	0.35	400	722	382	118	–
N#Cc1ccc2[nH]cc(CCCCN3CCN(c4ncc(-c5ccc(F)cc5F)cn4)CC3)c2c1	3.4	6.41	520	180	794	2820	2790	7540	7.53	4.39	7.28	16.4	83.3	53.5	0.58	193	1340	193	85.7	concentration at 0.25 h [17]: 253 ng/mL; concentration at 1 h [18]: 651 ng/mL; concentration at 2 h [19]: 935 ng/mL; concentration at 0.25 h [20]: 459 ng/g; concentration at 1 h [21]: 2240 ng/g; concentration at 2 h [22]: 2960 ng/g; Kp at 0.25 h [23]: 1.82; Kp at 1 h [24]: 3.45; Kp at 2 h [25]: 3.17; Activity (Hypothalamus [26]): 500 ng/g; Activity (Hypothalamus [32]): Active; Activity (Rattus norvegicus [33]): Dose-Dependent Effect; Time (Rattus norvegicus [34]): <100 s
N#Cc1ccc2[nH]cc(CCCCN3CCN(c4ncc(-c5ccc(Cl)cc5)cn4)CC3)c2c1	5.52	5.46	536	207	820	2840	2950	6800	9.52	20.8	9.73	15.7	52.6	47.8	0.32	444	1870	125	61	–
Cc1ccc(Sc2ccccc2N2CCNCC2)c(C)c1 [VORTIOXETINE]	–	–	–	–	–	–	–	–	–	–	–	–	–	–	–	–	–	–	–	bioavailability [35]: 75%
